Measurements from patent US20220315574A1, “Beta-Arrestin-Modulating Compounds and Methods of Using Same” (Duke University, priority 2019, published 2022).
Structures can show the parent of a compound that is named as a salt.

Legend:
βarr1 = biological target: T1, βarr1 (Rattus norvegicus, UniProt P29066); assay: Binding affinity (Kd) by ITC / thermal shift; settings: Cmpd-30 by ITC; other three by combination of ITC and thermal shift; read-out: Kd (dissociation constant), βarr1
T1 construct: made in house
T1 sequence (P29066 whole entry): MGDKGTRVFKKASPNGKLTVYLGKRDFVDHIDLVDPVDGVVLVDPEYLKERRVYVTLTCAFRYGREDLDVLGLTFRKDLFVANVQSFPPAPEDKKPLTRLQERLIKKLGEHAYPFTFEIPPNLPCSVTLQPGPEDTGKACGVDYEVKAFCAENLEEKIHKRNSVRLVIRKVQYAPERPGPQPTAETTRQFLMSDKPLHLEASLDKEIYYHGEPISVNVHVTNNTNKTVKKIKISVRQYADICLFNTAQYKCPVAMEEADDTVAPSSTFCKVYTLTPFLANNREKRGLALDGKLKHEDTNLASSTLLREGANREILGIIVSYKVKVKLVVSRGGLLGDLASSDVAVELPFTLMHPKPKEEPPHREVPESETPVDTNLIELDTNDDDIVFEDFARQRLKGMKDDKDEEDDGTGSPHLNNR
Protocol: A high-throughput differential scanning fluorimetry-based thermal shift screen was developed to identify potential βarr small-molecule modulators present in the collection of structurally diverse, drug-like small-molecule compound library described above. The screen was performed using the StepOnePlus™ Real-Time PCR System (Applied Biosystems, Foster City, Calif.). Melting temperature changes were monitored with the use of a reporter fluorescent probe, SYPRO Orange (Thermo Fisher Scientific). Proteins were buffered in a 20 mM HEPES pH 7.5, 100 mM NaCl solution. All reactions were set up in a 96-well plate at final volumes of 20 μl. […] The temperature was raised with a step of 0.5° C. per 30 second from 25° C. to 99° C. and fluorescence readings were taken at each interval. Melting curves were directly exported from the instrument and were analyzed using Applied Biosystems® Protein Thermal Shift™ Software. Melting temperature (Tm) was calculated by plotting the first derivative of the fluorescence emission as a function of temperature [−dF/dT]. […]
ITC measurements were made using the MicroCal iTC200 system (MicroCal, Malvern, Pa.). […] Data were analyzed using MicroCal Origin software program to obtain association constant (Ka=1/Kd), stoichiometry (N), and thermodynamic parameters such as enthalpy (ΔH) and entropy (ΔS) of binding.

βarr2 = βarr2 (Rattus norvegicus, UniProt P29067); assay: Negative-stain electron microscopy, 2D class averages of βarr2; set-up: final βarr2 (truncated βarr2 at 394) concentration of ˜1 mg/mL; made in house
βarr2, sequence (P29067 1-394): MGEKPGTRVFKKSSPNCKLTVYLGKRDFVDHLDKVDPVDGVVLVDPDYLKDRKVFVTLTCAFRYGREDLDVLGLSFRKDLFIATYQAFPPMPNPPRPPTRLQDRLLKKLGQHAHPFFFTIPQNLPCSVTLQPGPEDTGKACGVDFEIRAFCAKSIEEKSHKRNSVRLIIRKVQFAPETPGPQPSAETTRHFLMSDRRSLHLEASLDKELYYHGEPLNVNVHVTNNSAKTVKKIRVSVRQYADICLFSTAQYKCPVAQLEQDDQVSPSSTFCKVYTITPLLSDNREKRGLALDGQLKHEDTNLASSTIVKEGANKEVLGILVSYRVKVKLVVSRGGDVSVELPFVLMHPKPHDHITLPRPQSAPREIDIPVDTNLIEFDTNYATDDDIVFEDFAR
Protocol: To prepare for EM visualization of the architecture and structural organization of βarr2-Cmpd30 complexes, purified βarr2 (394) was diluted to 0.5 μM and incubated with 5 μM Cmpd-30 or vehicle (DMSO) in HN buffer (20 mM HEPES pH 7.4 and 150 mM NaCl) for 7 min at room temperature followed by dilution 10× into HN buffer containing 1 μM Cmpd-30, before negative staining. The positive control, βarr2 bound to IP6 sample was prepared similarly (5 μM and 250 μM, respectively) and was diluted 100× into HN buffer containing 10 μM IP6. Grids were prepared using conventional negative-staining protocols as described previously (Peisley, A. & Skiniotis, G. 2D Projection Analysis of GPCR Complexes by Negative Stain Electron Microscopy. Methods Mol Biol 1335, 29-38, doi:10.1007/978-1-4939-2914-6_3 (2015). Briefly, 3 μL of samples were applied onto a glow-discharged EM carbon-coated copper grid, adsorbed on the grid surface, blotted, stained, and air dried before imaging. EM grids were examined with a FEI Tecnai G2 Twin electron microscope and operated at an acceleration voltage of 120 kV. Images were recorded with an Eagle 2K CCD camera at a magnification of ×65,200 and a defocus value of ˜1.5 μm. Two-dimensional EM reference-free alignment and classification of particle projections were performed with the iterative stable alignment and clustering procedure (ISAC)(Yang, Z., et al., Iterative stable alignment and clustering of 2D transmission electron microscope images. Structure 20, 237-247, doi:10.1016/j.str.2011.12.007 (2012)). EM single particles were both automatically and manually selected using Boxer (part of the EMAN 2.1 software suite)(Tang, G. et EMAN2: an extensible image processing suite for electron microscopy. J Struct Biol 157, 38-46, doi:10.1016/j.jsb.2006.05.009 (2007)). A total of ˜250,000 0° particles projections were picked representing all the three βarr2 samples (with vehicle, Cmpd-30 or IP6) and windowed into 96×96-pixel images (with the RELION 2.1-beta-1 software package) and subjected to ISAC. […]

Compound | Kd (βarr1) [nM] | particle average width of βarr2 class averages (βarr2; control βarr2 ~72 Å) | class averages represented as homo-oligomers (dimers/trimers) (βarr2; control βarr 97% monomeric) [%]
C=C1C(=O)C23[C@H](O)C1CC[C@H]2[C@]12COC3(O)[C@@H](O)[C@@H]1C(C)(C)CC[C@@H]2O [Cmpd-5, (1R,2S,10S,11R,15S,18R)-9,10,15,18-tetrahydroxy-12,12-dimethyl-6-methylidene-17-oxapentacyclo[7.6.2.15,8.01,11.02,8]octadecan-7-one] | 233 | – | –
CN(C)c1n/c(=N/Cc2ccco2)ss1 [Cmpd-30, 5-(furan-2-ylmethylimino)-N,N-dimethyl-1,2,4-dithiazol-3-amine;hydrobromide] | 9.3 | 80-90 Å | 95
